Measured values taken from patent publication US20220041538A1, “CA[…] ACID AND SALTS THEREOF” (EMERALD HEALTH PHARMACEUTICALS INC, priority 2018, published 2022).
Entries after “also recorded” stand apart in the source; their conditions may differ. Like-named read-outs stand apart in the source and are kept apart here.

Key:
PPARγ = target: T1, PPARγ (Homo sapiens, UniProt P37231); assay: PolarScreen PPAR Competitor Assay (PPARγ binding, fluorescence polarization)
T1 sequence (P37231 238-505 limits assumed): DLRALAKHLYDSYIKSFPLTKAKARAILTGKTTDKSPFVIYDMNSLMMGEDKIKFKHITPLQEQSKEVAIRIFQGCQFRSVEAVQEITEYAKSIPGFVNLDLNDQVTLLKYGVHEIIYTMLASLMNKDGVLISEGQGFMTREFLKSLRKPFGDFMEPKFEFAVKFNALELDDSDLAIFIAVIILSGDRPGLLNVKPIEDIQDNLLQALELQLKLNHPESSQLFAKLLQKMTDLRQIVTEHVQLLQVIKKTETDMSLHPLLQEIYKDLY
Experimental: PPARγ binding activity was determined by using PolarScreen™ PPAR Competitor Assay kit (Life Technologies), according to the manufacturer's specifications. The PolarScreen™ PPAR Competitor Assay is a binding assay for determining IC50 values of compounds that bind to PPARγ.
Concentration of the compound of formula I and salts of formula II resulting in a half maximal shifts in polarization value determines the IC50.

3NP-intoxicated mice = assay: 3NP murine model of Huntington's disease, behavioral score; format: in vivo; conditions: oral and intraperitoneal; I 10 mg/Kg both routes; sodium salt 30 mg/Kg oral, 10 mg/Kg i.p.
Experimental: Mice were subjected to behavioral tests for determining their neurological status after the treatment with oral cannabigerol quinone acid (I) (10 mg/Kg dissolved in sesame oil) and after intraperitoneal delivery (10 mg/Kg dissolved in ethanol/cremophor/saline). Hind limb clasping, Locomotor activity, and kyphosis were rated from 0 to 2 based on severity: a score of 0 typically indicates normal function and 2 seriously affected.
Mice were subjected to behavioral tests for determining their neurological status after the treatment with oral sodium salt of the cannabigerol quinone acid (30 mg/Kg dissolved saline) and after intraperitoneal delivery (10 mg/Kg dissolved in saline). Hind limb clasping, Locomotor activity, and kyphosis were rated from 0 to 2 based on severity: a score of 0 typically indicates normal function and 2 seriously affected. […]
Lesions of the striatum were induced with 3-NP in adult (16-week-old; 30 g) male C57BL/6 mice (Harlan Ibérica, Barcelona, Spain). […] We evaluated the general locomotor activity, the hindlimb clasping and dystonia, and the truncal dystonia. […]

[1] = test system: striatum of 3NP-intoxicated mice; assay: Histological analysis of striatum in 3NP model (Nissl staining, Iba-1 immunostaining); format: in vivo; conditions: oral and intraperitoneal
Description: Loss of neurons in the striatum (Nissl staining) and Iba1 (microglia marker) were detected by immunostaining in the coronal sections of striatum of mice treated with vehicle, 3NP+ vehicle, 3NP+ compound I (oral and intraperitoneal). Quantification of Nissl staining (A) and Iba1 (B) positive cells in the mouse striatum. Total average number of neurons and microglia is shown.
Quantification of Nissl staining (A) and Iba1 (B) positive cells in the mouse striatum. Total average number of neurons and microglia is shown.
Brains from 3NP model were fixed in 4% paraformaldehyde and 5-μm-thick sections for Nissl staining and immunohistochemical analysis of Iba-1, a marker of microglial cells. For immunohistochemistry sections were incubated overnight at 4° C. with monoclonal anti-mouse Iba-1 antibody (Millipore, Mass., USA) used at 1/50 dilution. After incubation with the corresponding primary antibody, sections were washed in 0.1 M PBS and incubated O/N at 4° C. with goat anti-mouse (Millipore, Mass., USA) secondary antibody. […] Negative control sections were obtained using the same protocol with omission of the primary antibody. All sections for each immunohistochemical procedure were processed at the same time and under the same conditions. […]

6-OHDA challenged mice = assay: 6-OHDA murine model of Parkinson's disease (pole test, cylinder rearing test); format: in vivo; conditions: oral or intraperitoneal, 14 days
Experimental: C57BL/6 mice were unilaterally injected intracerebroventricullarly with 6-hydroxydopamine (6-OHDA) or saline (control mice) and subjected to chronic intraperitoneal treatment with cannabigerol quinone acid (1) (oral […] in sesame oil, and intraperitoneal 10 mg/Kg in Tween80/Saline ( 1/16)) or vehicle (14 days), starting 16 h after the 6-OHDA injection. SHAM group corresponds to mice subjected to the surgical manipulation without injection of 6-OHDA. Motor coordination was evaluated by rotarod performance and motor activity was evaluated using a computer-aided actimeter. A: pole test results after oral treatment, B: cylinder rearing test results after oral treatment, C: pole test results after intraperitoneal treatment, D: cylinder rearing test results after intraperitoneal treatment.
Motor coordination was evaluated by rotarod performance and motor activity was evaluated using a computer-aided actimeter. A: pole test results after oral treatment, B: cylinder rearing test results after oral treatment, C: pole test results after intraperitoneal treatment, D: cylinder rearing test results after intraperitoneal treatment.
C57BL/6 mice pretreated intracerebroventricularly were anesthetized with an intraperitoneal injection of 200 mg/Kg of 2,2,2-tribromoethanol (Sigma-Aldrich) and placed in a stereotaxic frame with a mouse adapter (David Kopf Instruments, Tujunga, Calif., USA). […]
The pole test was used to detect bradykinesia and motor and cylinder rearing test to evaluate sensory-motor deficits in PD mice. For Pole test mice were placed head-upward on the top of a vertical rough-surfaced pole (diameter 8 mm; height 55 cm) and the time until animals descended to the floor was recorded with a maximum duration of 90 s. […] For Cylinder Rearing Test (CRT) the initial forepaw (left, right, or both) preference after placing the mouse in a methacrylate transparent cylinder of 15.5 cm in diameter and 12.7 cm in height was measured. […]

TNFα = assay: Real-time quantitative PCR of striatum, 3NP model, TNFα; conditions: 3NP mice vs 3NP+Vehicle; I 10 mg/kg oral and i.p.; IIe 30 mg/kg oral, 10 mg/Kg i.p.
Experimental: (§1) Expression levels were calculated using the 2^−ΔΔCt method. Values are expressed as means±SEM for 3 animals per group.
(§2) Total RNA was isolated from striata (3NP model) using RNeasy Lipid Tissue Mini Kit (Qiagen, GmbH). The total amount of RNA extracted was quantitated by spectrometry at 260 nm and its purity from the ratio between the absorbance values at 260 and 280 nm. Genomic DNA was removed to eliminate DNA contamination. Single-stranded complementary DNA was synthesized from up to 1 μg of total RNA (pool from at least 3 animals per group) using iScript™ cDNA Synthesis Kit (Bio-Rad, Hercules, Calif., USA). The reaction mixture was kept frozen at −20° C. until enzymatic amplification. The iQ™ SYBR Green Supermix (Bio-Rad) was used to quantify mRNA levels for TNF-α and IL-6. Real-time PCR was performed using a CFX96 Real-Time PCR Detection System (Bio-Rad). The GAPDH housekeeping gene was used to standardize the mRNA expression levels in every sample. Expression levels were calculated using the 2^−ΔΔCt method.

IL-6 = assay: Real-time quantitative PCR of striatum, 3NP model, IL-6; conditions: 3NP mice vs 3NP+Vehicle; I 10 mg/kg oral and i.p.; IIe 30 mg/kg oral, 10 mg/Kg i.p.
Experimental: as §1, §2

Nrf2 = conditions: cited from earlier work

**Q.** Which results are given for `CCCCCC1=C(C(=O)O)C(=O)C(C/C=C(\C)CCC=C(C)C)=C(O)C1=O` [I, cannabigerol quinone acid]?
**A.** Remaining fluorescence polarization (%) (PPARγ; compound concentration 0.01 ∝M): 97.8%; Remaining fluorescence polarization (%) (PPARγ; compound concentration 0.05 ∝M): 97.3%; Remaining fluorescence polarization (%) (PPARγ; compound concentration 0.1 ∝M): 87.3%; Remaining fluorescence polarization (%) (PPARγ; compound concentration 0.5 ∝M): 78.2%; Remaining fluorescence polarization (%) (PPARγ; compound concentration 1 ∝M): 53.3%; Remaining fluorescence polarization (%) (PPARγ; compound concentration 5 ∝M): 20.7%; Remaining fluorescence polarization (%) (PPARγ; compound concentration 10 ∝M): 16.5%; Remaining fluorescence polarization (%) (PPARγ; compound concentration 25 ∝M): 24.4%; Remaining fluorescence polarization (%) (PPARγ; compound concentration 50 ∝M): 34.4%; clinical symptoms induced by 3-NP intoxication (behavioral score: hind limb clasping, locomotor activity, kyphosis) (3NP-intoxicated mice): clearly alleviates the clinical symptoms; reactive microgliosis (Iba-1+ cells) [1]: prevented the induction of reactive microgliosis; striatal neurons (Nissl staining) against 3NP toxicity [1]: preservation of striatal neurons; bradykinesia (pole test) (6-OHDA challenged mice): attenuated; clinical symptoms in 6-OH-DA challenged mice (6-OHDA challenged mice): alleviates clinical symptoms; motor deficit (cylinder rearing test) (6-OHDA challenged mice): attenuated; gene expression of TNFα in striatum (TNFα): down regulated; also recorded: attenuated the up-regulation; gene expression of IL-6 in striatum (IL-6): down regulated; also recorded: attenuated the up-regulation

**Q.** What does the source list for `CCCCCC1=CC(=O)C(C/C=C(\C)CCC=C(C)C)=C(O)C1=O` [VCE-003, cannabigerol hydroxy-quinone]?
**A.** Nrf2 activation (electrophilic activity) (Nrf2): electrophilic (Nrf2 activation); Nrf2 activation (electrophilic activity) (Nrf2; listed as CBG-Q): activates the transcription factor Nrf2
